Source: patent US8088897B2, “Assay method for group transfer reactions” (BellBrook Labs, Inc., priority 2003, dated 2012)
Where two headings read alike, the source gives them in different places.

Experiments:
[1] = system: Protein G-purified Anti-ADP antibody; assay: FP competition with 5-FAM-N6-ADP tracer and anti-ADP polyclonal antibody; format: binding, rabbit; conditions: 1 nM 5-FAM-N6-ADP tracer; for IC50: 19 hours room temperature, read-out: half maximal point in the competition curve (IC50); for amount required to displace the tracer: compared with ADP and ATP
Excerpt: To develop an anti-ADP antibody, 6-aminobutyl-ADP (Biolog Life Science Inst., Bremen, Germany) was conjugated to keyhole limpet hemocyanin with a suitable reagent such as glutaraldehyde and used to immunize rabbits. Other carrier proteins such as BSA or ovalbumin and other conjugation chemistries may be used. Attachment to carrier protein via the adenine ring exposes the ribosyl-phosphate moiety, where selectivity is required, and minimizes exposure of the adenine ring. The resulting antisera was tested for ADP binding affinity and selectivity in competitive fluorescence polarization binding assays. Synthesis of the fluor-ADP conjugates used as tracers in these binding assays is described below. […] The reaction mixtures consisted of 50 mM KPO4, 150 mM NaCl, 0.1 mg/mL BGG, 1 nM tracer, 3% Protein G-purified Anti-ADP antibody, and competitor. The reaction mixtures were incubated for 19 hours at room temperature. Competitors included ADP (∘), ATP (●), Adenosine (▪), and AMP (▴).

SULT1E1 [2] = molecular target: T1, SULT1E1 (Homo sapiens, UniProt P49888); assay: Inhibition of SULT1E1 measured with the FPIA-based assay; format: biochemical
T1 construct: made in house; host or cells: E. coli
T1 sequence (P49888 1-294): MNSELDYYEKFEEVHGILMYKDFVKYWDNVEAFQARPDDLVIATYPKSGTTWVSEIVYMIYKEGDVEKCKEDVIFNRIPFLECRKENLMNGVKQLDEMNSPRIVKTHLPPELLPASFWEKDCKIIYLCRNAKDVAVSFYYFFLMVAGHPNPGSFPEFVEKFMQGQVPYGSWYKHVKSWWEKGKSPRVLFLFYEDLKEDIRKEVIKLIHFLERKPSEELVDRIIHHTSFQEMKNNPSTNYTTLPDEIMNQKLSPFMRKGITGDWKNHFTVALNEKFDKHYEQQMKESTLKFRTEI
Protocol: Specifically, FIG. 25 is a graph showing inhibition of SULT1E1 by 2,6 Dichloro-4-nitrophenol (DCNP) measured with the FPIA-based assay. DCNP was serially diluted two-fold into wells in 46 uL of phosphate assay buffer (30 mM KPO4 (pH 6.5), 0.5 mg/mL BGG, 15 mM DTT, 1.6 mM MgCl2, 4 μM PAPS), followed by 50 μl of a 2× Antibody/tracer mix (5 uL 3642 Ab/2 nM Tracer C8-PAP-F14), and 200 ng of SULTIE in a total volume of 100 μl. The plate was incubated at room temp for 30 min, and read on the Tecan Ultra. AmP values were calculated by subtracting the SULT1E reactions from the no SULTIE controls. All values represent the mean of replicates.

SULT1E1 [3] = molecular target: T1, SULT1E1; assay: 35S-PAPS radioassay of SULT1E1 inhibition; format: biochemical; conditions: 35S-radioassay
SULT1E1 [4] = molecular target: T1, SULT1E1; assay: SULT1E1 enzymatic properties (Km, acceptor substrate specificity); format: biochemical; conditions: for acceptor substrate specificity: purified SULT1E1
Excerpt: In order to establish a sulfotransferase HTS assay method, SULT1E1, a SULT isoform, was first subcloned into an E. coli expression vector with a C-terminal 6× histidine tag and the expressed protein was purified by affinity chromatography and characterized with respect to its physical and enzymatic properties.

UGT 2B7 Baculosomes = assay: Mock UGT reactions: signal stabilization and reaction quenching; format: biochemical; conditions: EGTA at 80 mM, sodium vanadate at 30 mM; for effect on UDP breakdown: 5 μM UDP added, no acceptor substrate
Protocol: UGT enzymes are available only as crude membrane preparations that contain many other enzymes besides the desired UGT. Some of these contaminating enzymes can catalyze hydrolysis of the UDP molecule to UMP or Uridine, resulting in an unstable signal for the assay. To prevent this, agents such as sodium vanadate and EGTA are added to stabilize the assay signal by preventing breakdown of the UDP formed during the UGT reaction. […] The use of such a quenching reagent provides greater flexibility in experimental protocols because HTS assay plates may be read at any time after the quench reagent is added.

GDP monoclonal antibody = assay: FP competition binding of GDP vs GTP to monoclonal antibody-tracer complex; design: species or system mouse; conditions: 2 nM far red Tracer, 0.85 μg/mL antibody, one hour
Protocol: Fluorescence intensity and polarization measurements utilizing the ADP-Alexa Fluor® or GDP-Alexa Fluor® tracers were performed on a Tecan Ultra or Safire^2™ plate reader (Durham, N.C.) using appropriate filter sets. For the ADP-Alexa Fluor®633 tracer, the filters for the Safire2 were 635 nm excitiation (LED) and 670 emission (20 nm bandwidth). The free tracer reference was set to 20 mP, and the buffer (with or without antibody) was used as the buffer blank for both the sample and free tracer reference wells. Data from binding and competition curves were fit to a variable slope sigmoidal dose-response curve and the IC50 were calculated using GraphPad Prism (GraphPad Software, San Diego, Calif.).
To identify suitable antibody/tracer pairs for FP assay development, equilibrium binding assays were performed by titrating ADP/GDP antibodies with a panel of ADP/GDP tracers (1-2 nM). The first well consisted of 1 mg/mL antibody in 30 μL of the final equilibrium buffer (i.e. 50 mM HEPES (pH 7.5), 0.01% Brij-35, 1 mM EGTA, 2 mM MgCl2, 0.5% DMSO, 20 mM EDTA, and 2 nM tracer). A two-fold serial dilution of the antibody was then performed in 15 μL of the same buffer. […]
In one example, the monoclonal antibody binding selectivity between GDP vs. GTP was analyzed and the results are set forth in FIG. 27. […]

Ab 3642 = assay: FP competition curves with Ab 3642 and PAP tracer; format: binding, rabbit; conditions: read-out: IC50 for displacement of tracer
Protocol: N6-PAP-6F8 tracer is represented by the open symbols: ◯ (PAP), □ (PAPS). C8-PAP-F14 tracer is represented with the closed symbols: ● (PAP), ▪ (PAPS). PAP or PAPS was serially diluted two-fold in black mutiwell plates containing 50 mM phosphate buffer (pH 7.4), 150 mM NaCl, 0.1 mg/mL BGG, 1 nM C8-PAP-F14, and 1.5 uL purified Ab 3642 in a total volume of 12 μl or 1 nM N6-PAP-F8 and 0.5 uL 3642 Ab in a 20 uL volume. Polarization values were read after one hour at room temperature.
(§1) Competitors were serially diluted two-fold in a black 384-well microtiter plate containing 50 mM phosphate buffer (pH 7.4), 150 mM NaCl, 0.1 mg/mL BGG, 1 nM Tracer C8-PAP-F14, and either 1.5 uL Ab 3642 (A) or 3 uL Ab 1781 (B) in a total volume of 12 uL. After one hour incubation at room temperature, the polarization values were read on a Tecan Ultra (Ex485/Em535). The mean and standard deviation of duplicates for all data sets are shown.

Ab 1781 = assay: FP competition curves with Ab 1781 and PAP tracer; format: binding, rabbit; conditions: 1 nM C8-PAP-F14 tracer, 3 uL Ab 1781; read-out: IC50 for displacement of tracer
Protocol: as §1

[5] = molecular target: polyclonal antibody raised against a mixture of UTP and UDP conjugated to KLH (UGT-1); assay: Competitive FP displacement of UTP tracers from anti-UDP/UTP antibody by uridine nucleotides; format: binding, rabbit
Protocol: To detect UGT catalytic activity a series of experiments were performed using the antibodies and tracers described above. […] The antibody and 2 nM of a commercially available Alexa® 488-5-aminoalkynyl-UTP molecule (Molecular Probes) were added to wells of a black multiwell plate (Thermo Labsystems Pt# 7605) containing the indicated amounts of uridine nucleotides in 50 mM KPO4pH 7.5, 150 mM NaCl, 0.1 mg/ml BGG . Fluorescence polarization was read in a Tecan Ultra plate reader after several hours of equilibration at room temperature using a Ex485/Em535 filter set.
Applicants further note that the ability of the antibody to selectively recognize low micromolar concentrations of UDP in the presence of UDPGA concentrations typically used for UGT assays —50-100μM —is important for achieving a low signal to background. Varying the structure of the immunogen, as mentioned above, is one way to change the relative binding properties of antibodies for UDP and UDPGA. Another way that is not as immediately obvious is to vary the tracer structure. The method depends on the relative ability of UDP and UDPGA to competitively displace the tracer from antibody, and it is reasonable to assume that not all tracers will show the same relative response to the two nucleotides. An example of such tracer effects is summarized in FIGS. 10 A and B. In this example, two different tracers are compared. The tracers are conjugates of 5-aminoallyl UTP to two different amine reactive Alexa Fluors®, one with an excitation peak of 546 and the other with an excitation of 568. Both of these tracers are displaced from antibody (anti-UDP rabbit polyclonal Ab or UGT-1) in a similar manner by UDP. […] Thus, the signal to background of the UGT assay with a given antibody can be enhanced by identifying tracers that are displaced by UDP more effectively than UDPGA.

SULT1E1 [6] = molecular target: T1, SULT1E1; conditions: acceptor substrate; read-out: Km, published values for purified recombinant SULT1E1; cited from earlier work
[7] = 1 nM C8-PAP-F14 tracer, 1.5 uL Ab 3642
[8] = Alexa 546 5-aminoallyl UTP tracer, UGT-1, read-out: IC50 for displacement of tracer from antibody
[9] = 2 nM Alexa 488-5-aminoalkynyl-UTP tracer, UGT-1 antibody, read-out: half maximal values (IC50) for competing off the tracer

Compound: Nc1ncnc2c1ncn2[C@@H]1O[C@H](COP(=O)(O)OP(=O)(O)O)[C@@H](O)[C@H]1O [ADP, adenosine diphosphate]
- IC50 [1]: 0.3 µM

Compound: Nc1ncnc2c1ncn2[C@@H]1O[C@H](COP(=O)(O)O)[C@@H](O)[C@H]1O [AMP]
- amount required to displace the tracer [1]: much higher amounts

Compound: Nc1ncnc2c1ncn2[C@@H]1O[C@H](COP(=O)(O)OP(=O)(O)OP(=O)(O)O)[C@@H](O)[C@H]1O [ATP, adenosine triphosphate]
- IC50 [1]: 15 µM

Compound: O=[N+]([O-])c1cc(Cl)c(O)c(Cl)c1 [DCNP, 2,6 Dichloro-4-nitrophenol]
- Ki (SULT1E1 [2]): 7800 µM
- Ki (SULT1E1 [3]): 11000 µM

Compound: C[C@]12CC[C@H](O)CC1=CC[C@@H]1[C@@H]2CC[C@]2(C)C(=O)CC[C@@H]12 [DHEA]
- acceptor substrate specificity (SULT1E1 [4]): very poor substrates

Compound: O=C(O)CN(CCOCCOCCN(CC(=O)O)CC(=O)O)CC(=O)O [EGTA]
- effect on UGT activity (UGT 2B7 Baculosomes): minimal effects
- effect on UDP breakdown (UGT 2B7 Baculosomes): very effectively inhibits UDP breakdown

Compound: Nc1nc2c(ncn2[C@@H]2O[C@H](COP(=O)(O)OP(=O)(O)O)[C@@H](O)[C@H]2O)c(=O)[nH]1 [GDP, guanosine diphosphate]
- IC50 (GDP monoclonal antibody): 0.01 µM

Compound: Nc1nc2c(ncn2[C@@H]2O[C@H](COP(=O)(O)OP(=O)(O)OP(=O)(O)O)[C@@H](O)[C@H]2O)c(=O)[nH]1 [GTP, guanosine triphosphate]
- IC50 (GDP monoclonal antibody): 1.3 µM

Compound: Nc1ncnc2c1ncn2[C@@H]1O[C@H](COP(=O)(O)O)[C@@H](OP(=O)(O)O)[C@H]1O [PAP, 3′-phosphoadenosine 5′-phosphate]
- IC50 (Ab 3642; [7]): 0.3 µM
- IC50 (Ab 3642; C8-PAP-F14 tracer, Ab 3642): 0.3 µM
- IC50 (Ab 1781): 0.3 µM

Compound: Nc1ncnc2c1ncn2[C@@H]1O[C@H](COP(=O)(O)OS(=O)(=O)O)[C@@H](OP(=O)(O)O)[C@H]1O [PAPS, 3′-Phosphoadenosine 5′-phosphosulphate]
- IC50 (Ab 3642; [7]): 3.8 µM
- IC50 (Ab 1781): 1.5 µM
- Km (SULT1E1 [4]; donor, read-out: Km for PAPS with SULT1E1): ~0.05 µM

Compound: O=C(O)[C@H]1O[C@H](OP(=O)(O)OP(=O)(O)OC[C@H]2O[C@@H](n3ccc(=O)[nH]c3=O)[C@H](O)[C@@H]2O)[C@H](O)[C@@H](O)[C@@H]1O [UDPGA, UDP-glucuronic acid]
- IC50 ([5]; 2 nM Alexa 488-5-aminoalkynyl-UTP tracer, UGT-1 antibody, read-out: IC50 for competing off the tracer): ~2000 µM
- IC50 [5, 8]: 1200 µM

Compound: O=c1ccn([C@@H]2O[C@H](COP(=O)(O)OP(=O)(O)O)[C@@H](O)[C@H]2O)c(=O)[nH]1 [UDP]
- IC50 [5, 9]: 15 µM
- IC50 [5, 8]: 7 µM
- IC50 ([5]; Alexa 568 5-aminoallyl UTP tracer, UGT-1, read-out: IC50 for displacement of tracer from antibody): 9 µM

Compound: O=c1ccn([C@@H]2O[C@H](COP(=O)(O)OP(=O)(O)OP(=O)(O)O)[C@@H](O)[C@H]2O)c(=O)[nH]1 [UTP]
- IC50 [5, 9]: 5 µM

Compound: Nc1ncnc2c1ncn2[C@@H]1O[C@H](CO)[C@@H](O)[C@H]1O [adenosine, Adenosine]
- amount required to displace the tracer [1]: much higher amounts

Compound: NCCc1ccc(O)c(O)c1 [dopamine]
- acceptor substrate specificity (SULT1E1 [4]): very poor substrates

Compound: C[C@]12CC[C@@H]3c4ccc(O)cc4CC[C@H]3[C@@H]1CC[C@@H]2O [estradiol]
- Km (SULT1E1 [6]): 0.005 to 0.015 µM

Compound: Oc1cccc2ccccc12 [α-naphthol]
- acceptor substrate specificity (SULT1E1 [4]): intermediate

Compound: Sodium vanadate
- effect on UGT activity (UGT 2B7 Baculosomes): very effectively inhibits UGT activity
- effect on UDP breakdown (UGT 2B7 Baculosomes): prevents UDP breakdown
